# Experimental data taken from PubChem BioAssay AID1462 (Emory University Molecular Libraries Screening Center, 2008).
# Several values for one entry are separate records, joined by “and”; a condition that tells them apart may be missing. Equal values may be shown once.
# Target: Protein GrpE (Escherichia coli (strain K12)) (UniProt P09372)
# Assay: inhibition of DnaK/DnaJ/GrpE luciferase refolding – biochemical, luminescence, E. coli K12, dose response (AID 1462)
# Conditions: DnaK/DnaJ/GrpE denatured luciferase refolding
# Sequence of Protein GrpE (Escherichia coli (strain K12)) (P09372 whole entry, looked up): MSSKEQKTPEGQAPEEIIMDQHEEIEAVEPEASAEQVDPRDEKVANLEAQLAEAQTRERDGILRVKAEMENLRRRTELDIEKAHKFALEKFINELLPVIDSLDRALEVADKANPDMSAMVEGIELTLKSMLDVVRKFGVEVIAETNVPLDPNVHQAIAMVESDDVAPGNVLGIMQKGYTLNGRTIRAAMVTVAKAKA
smiles,measurement,value
Nc1c(S(=O)(=O)O)cc(Nc2ccc(Nc3nc(Cl)nc(Nc4ccc(S(=O)(=O)O)cc4)n3)c(S(=O)(=O)O)c2)c2c1C(=O)c1ccccc1C2=O,IC50,1660 nM and 551 nM
